“Also recorded” adds a separate entry of the source.
Assays:
[1] = Liver toxicity after three weeks of once-a-week Bobcat339; type: in vivo, mouse
Procedure: For corticosterone, blood samples were obtained via retroorbital bleeding between 19:00 and 20:00. For alanine transaminase, aspartate transaminase and bilirubin, blood samples were collected by cardiac puncture of terminally anesthetized animals. All blood samples were collected in EDTA tubes (Microtainer with K2EDTA, BD, 365974). The tubes were centrifuged at 2,000×g at 4 °C for 20 min, and plasma was collected and stored at −80 °C until use. Plasma corticosterone levels were measured using Corticosterone ELISA kit (Enzo, ADI-900-097) according to the manufacturer's instructions. Kits used to measure alanine transaminase (EALT-100) and aspartate transaminase (EASTR-100) were purchased from Bioassay Systems. The bilirubin assay kit (MAK126) was purchased from Sigma Aldrich.

MDMs = test: TUNEL assay in human MDMs; type: cell-based; details: 10 μM, 48 h
Procedure: For TET3 expression restoration experiments, cells seeded in 24-well plates were infected with Ad-GFP or Ad-TET3 at 4000 gc/cell. Following 16 h of infection, vehicle or Bobcat339 were added at a final concentration of 10 μM. Protein and RNA were isolated 48 hours later and analyzed.
These were performed using the In Situ Cell Death Detection Kit (Sigma Aldrich, 12156792910). Briefly, cells were fixed with 4% paraformaldehyde in PBS for 1 h at RT and rinsed with PBS, followed by permeabilization with 0.1% Triton X-100 in 0.1% sodium citrate for 2 min on ice. TUNEL reaction mixture was added and incubation was carried out at 37 °C for 60 min. DAPI was added to counter-stain the cells for 1 min. The slides were coverslipped and scoped using a Keyence BZ-X700 fluorescence microscope.

Tet3 mRNA = Tet3 mRNA in the ARC of mice; type: in vivo, mouse; details: 2.5 mg/kg i.p., two days
Procedure: To test whether Bobcat339 affects TET3 protein expression in AgRP neurons, Agrp-IRES-Cre::LSL-Cas9-GFP mice with GFP expression specifically in AgRP neurons were intraperitoneally injected with vehicle or Bobcat339 at 2.5 mg/kg, followed by isolation of ARCs under fed conditions (9:00-11:00) two days later. This dose was chosen based on the dose response studies. TET2 expression was widespread but was negligible in AgRP neurons.
(§1) Bobcat339 powder (Sigma-Aldrich, SML2611) was freshly dissolved in DMSO (vehicle) at a concentration of 50 mg/mL and filtered through a 0.22 micron. It was further diluted with 1×PBS to a final concentration of 0.5 mg/mL before injections. Mice were injected intraperitoneally with Bobcat339 at 1 mg/kg, 2.5 mg/kg, or 4 mg/kg.
Total RNAs were extracted from neuronal cells or homogenized hypothalamic arcuate nucleus tissue samples using PureLink RNA Mini Kit (Ambion, 12183025). cDNA was synthesized using PrimeScript RT Reagent Kit in a 20 μl reaction containing 0.5-1 μg of total RNA. Real-time quantitative PCR was performed in a 15 μl reaction containing 0.5-1 μl of cDNA using SsoAdvanced Universal SYBR Green Supermix in a Bio-Rad iCycler. Specificity was verified by melting curve analysis. The Ct values of each sample were used in the post-PCR data analysis. Gene expression levels were normalized against RPLP0.

AgRP neurons = test: AgRP neuron viability and activation (FOS); type: in vivo, mouse; details: Bobcat339 vs. vehicle mice
Description: As genetic TET3 knockdown specifically in AgRP neurons activated these neurons (Xie et al., 2022, J Clin Invest, 132), additional studies tested whether Bobcat339 treatment can activate AgRP neurons using FOS (a marker for neuronal activation) as a readout. Thus, ARCs were isolated under fed conditions (9:00-11:00) from mice treated with Bobcat339 or vehicle as above (FIG. 16A through FIG. 16D).
as §1
The immunofluorescence for brain slices was conducted using previous methods (18). In brief, postfixed sections were cut into 40-μm-thick sections, followed by 5 times washing. […] The sections were coverslipped and scoped using a Keyence BZ-X700 fluorescence microscope. The fluorescence signals from GFP in AgRP neurons were detected without immunostaining.

Nc1nc(=O)n(-c2cccc(-c3ccccc3)c2)cc1Cl [Bobcat339, 4-Amino-1-[1,1′-biphenyl]-3-yl-5-chloro-2(1H)-pyrimidinone]
tolerability ([1]; 3-weeks of once-a-week i.p. injection): well tolerated | liver toxicity ([1]; three weeks of once-a-week i.p. Bobcat339): no evidence of liver toxicity; also recorded: no liver toxicity has been detected | apoptosis (TUNEL) (MDMs): increased apoptosis; also recorded: induced apoptosis; also recorded: a significant increase in pyroptotic cell death | apoptosis (TUNEL / Caspase-1) (MDMs; with Ad-TET3): abolished when TET3 protein was restored to control levels; also recorded: not seen when TET3 expression level was restored | Tet3 mRNA in the ARC (Tet3 mRNA): did not alter the mRNA abundance of Tet3; also recorded: no significant change | AgRP neuronal viability / number (AgRP neurons): did not affect AgRP neuronal viability; also recorded: no significant difference between the groups | FOS expression in AgRP neurons (AgRP neurons; fed): increased expression of FOS in AgRP neurons

— patent US20260355199A1, “COMPOSITIONS AND METHODS FOR TREATING OR PREVENTING NONALCOHOLIC STEATOHEPATITIS (NASH), ANOREXIA, DEPRESSION, ENDOMETRIOSIS, AND OTHER DISEASES OR DISORDERS” (priority 2022, published 2026)
